Measurements as given in patent publication US12534457B2, “Heteroaryl derivative compounds, and uses thereof” (Voronoi Inc., priority 2021, dated 2026).

These molecules were tested on Ba/F3 cells expressing EGFR Del19/C797S (EGFR DC) (assay: Proliferation inhibitory activity, Ba/F3 cells expressing EGFR Del19/C797S (CellTiter-Glo)). Settings: Mus musculus, BaF3, 72 hours of compound treatment.
Format: cell-based
Procedure, shortened: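 Viability after 72 h of compound exposure was measured by luminescence (CellTiter-Glo) in Ba/F3 lines transduced with mutant EGFR. Final concentrations spanned 0.2 nM–5 μM over 12 threefold steps. Growth relative to untreated control gave GI50 values; each test was run three times.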

GI50, < 50 nM:
COc1cc(N2CCN(C)CC2)c(-c2cnn(C)c2)nc1Nc1cc(N2OCC[C@@H]2c2cccc(F)c2F)ncn1 [Example 201, (R)-6-(3-(2,3-difluorophenyl)isoxazolidin-2-yl)-N-(3-methoxy-6-(1-methyl-1H-pyrazol-4-yl)-5-(4-methylpiperazin-1-yl)pyridin-2-yl)pyrimidin-4-amine]
COc1nc(N2CCN(C)CC2)c(-c2cnn(C)c2)cc1Nc1cc(N2OCC[C@@H]2c2cccc(F)c2F)ncn1 [Example 202, (R)-6-(3-(2,3-difluorophenyl)isoxazolidin-2-yl)-N-(2-methoxy-5-(1-methyl-1H-pyrazol-4-yl)-6-(4-methylpiperazin-1-yl)pyridin-3-yl)pyrimidin-4-amine]
C[C@@H]1[C@@H](CS(C)(=O)=O)CN1c1cc(Nc2cc(N3OCC[C@@H]3c3cccc(F)c3F)ncn2)cc(-c2cnn(C)c2)c1N1CCOCC1 [Example 203, 6-((R)-3-(2,3-difluorophenyl)isoxazolidin-2-yl)-N-(3-(1-methyl-1H-pyrazol-4-yl)-5-((2R,3S)-2-methyl-3-((methylsulfonyl)methyl)azetidin-1-yl)-4-morpholinophenyl)pyrimidin-4-amine]
C=CCN1CCN(C2CCN(c3ccc(Nc4cc(N5OCC[C@@H]5c5cccc(F)c5F)ncn4)c(OC)c3)CC2)CC1 [Example 206, (R)—N-(4-(4-(4-allylpiperazin-1-yl)piperidin-1-yl)-2-methoxyphenyl)-6-(3-(2,3-difluorophenyl)isoxazolidin-2-yl)pyrimidin-4-amine]
CCN1CCN(C2CCN(c3ccc(Nc4cc(N5OCC[C@@H]5c5cccc(F)c5F)ncn4)c(OC)c3)CC2)CC1 [Example 207, (R)-6-(3-(2,3-difluorophenyl)isoxazolidin-2-yl)-N-(4-(4-(4-ethylpiperazin-1-yl)piperidin-1-yl)-2-methoxyphenyl)pyrimidin-4-amine]
COc1cc(N2CCC(N3CCN(C4CCC4)CC3)CC2)ccc1Nc1cc(N2OCC[C@@H]2c2cccc(F)c2F)ncn1 [Example 208, (R)—N-(4-(4-(4-cyclobutylpiperazin-1-yl)piperidin-1-yl)-2-methoxyphenyl)-6-(3-(2,3-difluorophenyl)isoxazolidin-2-yl)pyrimidin-4-amine]
COc1cc(N2CCC(N3CCN(C4COC4)CC3)CC2)ccc1Nc1cc(N2OCC[C@@H]2c2cccc(F)c2F)ncn1 [Example 209, (R)-6-(3-(2,3-difluorophenyl)isoxazolidin-2-yl)-N-(2-methoxy-4-(4-(4-(oxetan-3-yl)piperazin-1-yl)piperidin-1-yl)phenyl)pyrimidin-4-amine]
COc1cc(N2CCC(N3CCN(CC4CC4)CC3)CC2)ccc1Nc1cc(N2OCC[C@@H]2c2cccc(F)c2F)ncn1 [Example 210, (R)—N-(4-(4-(4-(cyclopropylmethyl)piperazin-1-yl)piperidin-1-yl)-2-methoxyphenyl)-6-(3-(2,3-difluorophenyl)isoxazolidin-2-yl)pyrimidin-4-amine]
COc1cc(N2CCC(N3CC4(CN(C)C4)C3)CC2)ccc1Nc1cc(N2OCC[C@@H]2c2cccc(F)c2F)ncn1 [Example 211, (R)-6-(3-(2,3-difluorophenyl)isoxazolidin-2-yl)-N-(2-methoxy-4-(4-(6-methyl-2,6-diazaspiro[3.3]heptan-2-yl)piperidin-1-yl)phenyl)pyrimidin-4-amine]
COc1cc(N2CCC(N3CC[C@@H](N(C)C)C3)CC2)ccc1Nc1cc(N2OCC[C@@H]2c2cccc(F)c2F)ncn1 [Example 212, 6-((R)-3-(2,3-difluorophenyl)isoxazolidin-2-yl)-N-(4-(4-((R)-3-(dimethylamino)pyrrolidin-1-yl)piperidin-1-yl)-2-methoxyphenyl)pyrimidin-4-amine]
COc1cc(N2CCC(N3CCN(C)[C@H](C)C3)CC2)ccc1Nc1cc(N2OCC[C@@H]2c2cccc(F)c2F)ncn1 [Example 213, 6-((R)-3-(2,3-difluorophenyl)isoxazolidin-2-yl)-N-(4-(4-((R)-3,4-dimethylpiperazin-1-yl)piperidin-1-yl)-2-methoxyphenyl)pyrimidin-4-amine]
